How the values were obtained:
human PTHR1 = target: T1, human PTHR1 (Homo sapiens, UniProt Q03431); test: cAMP induction (cAMP-responsive luciferase) in HEK293 cells stably expressing human PTHR1; assay type: cell-based; conditions: maximal cAMP response, normalized
T1 construct: expressed in transfected cells
T1 sequence (Q03431 27-593): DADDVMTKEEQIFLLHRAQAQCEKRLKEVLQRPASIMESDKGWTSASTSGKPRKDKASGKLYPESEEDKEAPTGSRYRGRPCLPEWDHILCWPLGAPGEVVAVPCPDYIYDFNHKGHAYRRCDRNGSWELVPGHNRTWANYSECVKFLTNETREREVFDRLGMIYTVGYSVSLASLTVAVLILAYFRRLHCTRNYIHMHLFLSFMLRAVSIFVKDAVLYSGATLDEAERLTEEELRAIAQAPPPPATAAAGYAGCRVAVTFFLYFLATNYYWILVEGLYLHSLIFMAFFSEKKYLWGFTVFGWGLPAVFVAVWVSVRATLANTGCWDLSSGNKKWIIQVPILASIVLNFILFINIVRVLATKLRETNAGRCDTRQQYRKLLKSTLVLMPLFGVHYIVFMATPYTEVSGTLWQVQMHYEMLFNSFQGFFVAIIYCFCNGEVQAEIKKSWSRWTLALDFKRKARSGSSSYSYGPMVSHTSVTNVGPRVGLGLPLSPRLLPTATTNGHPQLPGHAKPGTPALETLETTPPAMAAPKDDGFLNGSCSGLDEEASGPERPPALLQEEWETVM
Description: (§1) Measurement of cAMP response. These assays were performed as previously described^27. […] Confluent monolayers of cells were pre-incubated with CO2 independent medium containing D-luciferin (0.5 mM) at 37° C. until a stable baseline level of luminescence was established (20 min). Varying concentrations of ligands were then added, and the time course of luminescence response was recorded using BioTek plate reader.
(§2) Data calculations. Data were processed using Microsoft Excel and GraphPad Prism 6. Data from cAMP dose-response assays were analyzed using a sigmoidal dose-response model with variable slope. Data sets were statistically compared by using Student's t test (two-tailed) assuming unequal variances for the two sets.

PTHR16E = target: T2, PTHR16E (Homo sapiens, UniProt Q03431, A83I/D81R/G76A/K80A/K82Q/P78E/R79L/S71Q/S73D/S75E/T74Q); test: cAMP induction in HEK293 cells stably expressing PTHR16E (6E/Ubc6e epitope tag in exon 2 segment); assay type: cell-based; conditions: maximal cAMP response, normalized
T2 construct: expressed in transfected cells
T2 sequence (Q03431 27-593 S71Q/S73D/T74Q/S75E/G76A/P78E/R79L/K80A/D81R/K82Q/A83I): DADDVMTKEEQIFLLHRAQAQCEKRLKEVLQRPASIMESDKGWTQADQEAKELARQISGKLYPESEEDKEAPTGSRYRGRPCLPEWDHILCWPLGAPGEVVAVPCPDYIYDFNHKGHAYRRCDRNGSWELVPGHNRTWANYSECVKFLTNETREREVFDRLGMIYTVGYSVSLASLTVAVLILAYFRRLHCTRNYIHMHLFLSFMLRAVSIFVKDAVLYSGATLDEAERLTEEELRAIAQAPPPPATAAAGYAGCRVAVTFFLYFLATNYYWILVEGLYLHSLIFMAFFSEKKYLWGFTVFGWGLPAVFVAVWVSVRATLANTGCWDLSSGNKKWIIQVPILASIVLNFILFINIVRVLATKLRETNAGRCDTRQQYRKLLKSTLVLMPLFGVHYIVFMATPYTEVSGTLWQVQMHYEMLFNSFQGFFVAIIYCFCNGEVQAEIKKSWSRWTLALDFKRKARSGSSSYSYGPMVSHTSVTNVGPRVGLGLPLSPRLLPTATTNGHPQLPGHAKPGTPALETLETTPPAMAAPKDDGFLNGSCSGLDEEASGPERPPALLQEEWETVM
Description: (§3) Measurement of cAMP response. These assays were performed as previously described^27. Briefly, HEK-293-derived cell lines that stably express the Glosensor cAMP reporter (Promega Corp.)^30 and PTHR1, a PTHR1 variant, or PTHR2 were seeded into white sided 96 well plates (50,000 cells/well) and grown to confluency. Confluent monolayers of cells were pre-incubated with CO2 independent medium containing D-luciferin (0.5 mM) at 37° C. until a stable baseline level of luminescence was established (20 min). Varying concentrations of ligands were then added, and the time course of luminescence response was recorded using BioTek plate reader.
as §2
(§4) The portion of PTHR1 encoded by exon 2 is not resolved in structural studies (FIG. 12—Panel d)^13, 14, 17, is not important for ligand binding^18, and in past work has been targeted as a site for receptor modification^18, 19. A construct was generated that encodes a PTHR1 variant in which a 14-residue fragment from exon 2 was replaced with a 14-mer epitope tag from the intracellular protein UBC6e (PTHR16E, FIG. 12—Panel d)^20. A receptor construct in which a pH-sensitive green fluorescent protein variant (GFP) was inserted into the portion of the receptor encoded by exon 2 (PTHR1GFP in FIGS. 17A to 17C)^19. Another version of PTHR1 in which yellow fluorescent protein (YFP) replaces the entire extracellular domain (PTHR1YFPΔECD, FIG. 12—Panel e)^21, was also used.

PTHR1GFP = test: cAMP induction in HEK293 cells stably expressing PTHR1GFP; assay type: cell-based, human
Description: The GFP-PTHR1 fusion was stably expressed in cells that respond to receptor engagement by activation of a cAMP-sensitive version of luciferase. Exposure of these transfectants to PTH(1-11) yielded the expected dose-response curve with half maximal stimulation at ˜200 nM.
as §3, with “reader. The maximal luminescence response (observed 12-16 min after ligand addition) was used to construct dose-response data sets (Table 4, FIGS. 22A to 22E).” for “reader.”
as §2
as §4, with “While there is no structural information for any VHH bound to PTHR1, a mode of interaction was envisioned between the receptor and VHH-PTH conjugates like that depicted in FIG. 12—Panel c. The” for “The”

PTHR2 = target: T3, PTHR2 (Homo sapiens, UniProt P49190); test: cAMP induction in HEK293 cells stably expressing human PTHR2; assay type: cell-based; conditions: maximal cAMP response, normalized
T3 construct: expressed in transfected cells
T3 sequence (P49190 25-550): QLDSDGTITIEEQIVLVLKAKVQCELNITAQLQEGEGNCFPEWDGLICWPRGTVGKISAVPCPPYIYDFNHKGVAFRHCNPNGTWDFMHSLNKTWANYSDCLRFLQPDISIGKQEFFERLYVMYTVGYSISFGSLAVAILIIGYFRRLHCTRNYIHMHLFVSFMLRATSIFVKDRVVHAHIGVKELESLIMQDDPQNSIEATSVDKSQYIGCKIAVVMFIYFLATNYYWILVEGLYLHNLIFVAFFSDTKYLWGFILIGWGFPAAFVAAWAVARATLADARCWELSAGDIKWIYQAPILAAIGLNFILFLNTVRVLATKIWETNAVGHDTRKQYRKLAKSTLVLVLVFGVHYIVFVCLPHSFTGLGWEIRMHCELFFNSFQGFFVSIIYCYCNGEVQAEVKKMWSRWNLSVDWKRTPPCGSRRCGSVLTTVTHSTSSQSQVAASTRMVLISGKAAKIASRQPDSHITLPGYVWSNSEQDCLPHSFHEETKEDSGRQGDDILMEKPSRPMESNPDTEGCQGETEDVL
Description: as §1, §2

In the case of `CC[C@H](C)[C@H](NC(=O)[C@H](CCC(=O)O)NC(=O)[C@H](CO)NC(=O)[C@@H](NC(=O)[C@@H](N)CO)C(C)C)C(=O)N[C@@H](CCC(N)=O)C(=O)N[C@@H](CC(C)C)C(=O)N[C@@H](CCSC)C(=O)N[C@@H](Cc1cnc[nH]1)C(=O)N[C@@H](CC(N)=O)C(=O)N[C@@H](CC(C)C)C(=O)NCC(=O)N[C@@H](CCCCN)C(=O)N[C@@H](Cc1cnc[nH]1)C(=O)N[C@@H](CC(C)C)C(=O)N[C@@H](CC(N)=O)C(=O)N[C@@H](CO)C(=O)N[C@@H](CCSC)C(=O)N[C@@H](CCC(=O)O)C(=O)N[C@@H](CCCN=C(N)N)C(=O)N[C@H](C(=O)N[C@@H](CCC(=O)O)C(=O)N[C@@H](Cc1c[nH]c2ccccc12)C(=O)N[C@@H](CC(C)C)C(=O)N[C@@H](CCCN=C(N)N)C(=O)N[C@@H](CCCCN)C(=O)N[C@@H](CCCCN)C(=O)N[C@@H](CC(C)C)C(=O)N[C@@H](CCC(N)=O)C(=O)N[C@@H](CC(=O)O)C(=O)N[C@H](C(=O)N[C@@H](Cc1cnc[nH]1)C(=O)N[C@@H](CC(N)=O)C(=O)N[C@@H](Cc1ccccc1)C(=O)O)C(C)C)C(C)C` [PTH(1-34)], the “Max (normalized ± SD), hPTHR1” value (human PTHR1) is reported as 1.00 ± 0.00, the “Max (normalized ± SD), hPTHR16E” value (PTHR16E) is reported as 1 ± 0.0 and the “Max (normalized ± SD), hPTHR1GFP” value (PTHR1GFP; maximal cAMP response, normalized) is reported as 1.00 ± 0.00. The EC50 (PTHR1GFP; mean ± SD, Inactive = response <5% of maximal, read-out: EC50, cAMP induction, hPTHR1GFP) was 0.4 ± 0.8 nM and the “Max (normalized ± SD), hPTHR2” value (PTHR2) was 1 ± 0.

Reference: patent publication US11878063B2, “Engineered ligands and uses thereof” (Children's Medical Center Corporation, priority 2019, dated 2024)
